Source: publication PMC9731497, “Identification of potent anti-Cryptosporidium new drug leads by screening traditional Chinese medicines” (PLOS Neglected Tropical Diseases, 2022)
Like-named read-outs stand apart in the source and are kept apart here.

How the values were obtained:
C. parvum HNJ-1 strain = assay: In vitro C. parvum growth inhibition assay (Sporo-Glo staining, fluorescence microscopy count in infected HCT-8 cells); format: cell-based, Cryptosporidium parvum; details: Cryptosporidium parvum, read-out: Parasite inhibition (%)
Description: The primary screening of compounds for C. parvum was performed as follows: HCT-8 cells were seeded in 96-well plates at a density of 2 × 10^4 cells/well and allowed to grow overnight. Before infecting cells, Cryptosporidium oocysts were excysted to sporozoites. 87 compounds were tested against C. parvum at a single concentration of 1 μM. Each compound was tested once. Infected HCT-8 cells and uninfected HCT-8 cells were used as positive and negative controls, respectively, in medium containing 0.1% DMSO. Nitazoxanide was used as a standard comparative drug. In vitro inhibition assays were carried out as previously described. Briefly, oocysts were suspended in 1 ml of 0.1% sodium hypochlorite in PBS, incubated for 5 min at 4°C, centrifuged for 10 min at 3000 rpm, and washed three times in PBS. The oocysts were then suspended in excystation solution consisting of 0.75% sodium taurocholate and 0.25% trypsin dissolved in 0.1 M phosphate buffer (with 93.4 mM K2HPO4 and 6.5 mM KH2PO4; pH 8.0) and incubated at 37°C for 1 h. The oocyst/sporozoite suspensions were then rinsed in 1 x PBS (with 137 mM NaCl, 2.7 mM KCl, 8 mM Na2HPO4, and 2 mM KH2PO4; pH 7.5) once more before being filtered through a 5-μm pore-size PVDF filter (Millipore, Burlington, MA, USA) with 5 ml syringe to remove the oocyst wall. HCT-8 cells were seeded in 96-well plates (Thermo Fisher Scientific Inc., MA, USA) and incubated overnight. The cells were then infected with C. parvum sporozoites (4 ×10^4 sporozoites/well) containing in RPMI-1640 medium for 3 h. After 3h inoculation, the non-infected parasite or debris were washed with new RPMI-1640 media. At this point, in RPMI-1640 medium containing 1 μM library compounds were added. Infected cells were incubated for an additional 45 h. Following incubation, the infected cells were fixed for 10 minutes in ice-cold 100% methanol at room temperature. Plates were then carefully rinsed 3 times with PBS. The parasite infected cells were then blocked with 1% bovine serum albumin (BSA) in PBS for 30 minutes and then stained with Sporo-Glo (an anti-Cryptosporidium polyclonal antibody) (Waterborne Environmental, Inc., VA, USA) protected from light for 1 h at room temperature. Finally, cells were washed twice with 1 x PBS-T (1 x PBS supplemented with 0.01% Tween). A Keyence BZ-II 9000 was used to capture the images (KEYENCE, Osaka, Japan). The plates were imaged with a HS all-in-one fluorescence microscope using a 20 x objective. The image output was imported into Microsoft excel for data organization and analyses. All C. parvum parasite in the well were counted.
For a second investigation, four selective hit compounds were used to determine the half-maximum inhibitory concentration (EC50). The parasites were treated with various doses of compounds (ranging from 0.008–1 μM). HCT-8 cells (2 × 10^4 cells/well) were grown for 24 h before being infected with 4 × 10^4 C. parvum sporozoites in 96-well plates. […] Sporo-Glo was used for C. parvum staining as described above. Fluorescence microscopy with a Keyence BZ-II 9000 imager was used to count all Cryptosporidium in the wells (KEYENCE, Osaka, Japan). EC50 vales were determined by analyzing dose-response curves made by GraphPad Prism (GraphPad Software, CA, USA).

[1] = Host cell viability assay (Cell-Titer Glo)
Description: HCT-8 cells (4 × 10^4 cells/well) 100 μl were seeded in 96-well plates, cultured for 24 h, and then treated for 48 h with different concentrations of hit compounds (10^1, 1, 10^−1, 10^−2, 10^−3, 10^−4 μM). After a 48-h incubation period, equilibrate the 96-well plates in room temperature (RT) for 30 minutes. Then, equal volume of Cell-Titer Glo (Promega) reagent was added to each treated well, the plate was shaken on an orbital shaker for 2 minutes then incubated for 10 minutes at RT. The luminescence was quantified by the GloMax Navigator plate reader (Promega, Japan) and the cell viability was evaluated as directed by the kit manufacturer. The luminescence signal of control wells containing DMSO was set to 100% cell viability. […] Graph Pad Prism 7.0.1 was used to determine CC50 values.

[2] = 1 μM, 45 h, C. parvum HNJ-1 strain in HCT-8 cells, first screen
[3] = human, HCT-8 cells, Host cell viability (%), 48 h, 1 μM

SMILES	inhibition at 1 µM (C. parvum HNJ-1 strain; [2]) [%]	viability at 48 h, 1 µM [1, 3] [%]	inhibition at 1 µM (C. parvum HNJ-1 strain; HCT-8, 45 h) [%]	viability at 48 h, 1 µM ([1]; human, Host cell viability (%), HCT-8 cells, 48 h, 1 μM) [%]
CC(C)=CCC[C@](C)(O[C@@H]1O[C@H](CO)[C@@H](O)[C@H](O)[C@H]1O)[C@H]1CC[C@]2(C)[C@@H]1[C@H](O)C[C@@H]1[C@@]3(C)CC[C@H](O)C(C)(C)[C@@H]3[C@@H](O[C@@H]3O[C@H](CO)[C@@H](O)[C@H](O)[C@H]3O[C@@H]3O[C@@H](C)[C@H](O)[C@@H](O)[C@H]3O)C[C@]12C [Ginsenoside-Re]	71.2	98.7	–	–
COc1cc(CNC(=O)CCCCCCC(C)C)ccc1O [Dihydrocapsaicin]	70.8	98.4	–	–
CC(C)=CC[C@@H](O)C1=CC(=O)c2c(O)ccc(O)c2C1=O [Shikonin]	–	–	66.2	–
CC(C)=CCC[C@](C)(O[C@@H]1O[C@H](CO)[C@@H](O)[C@H](O)[C@H]1O)[C@H]1CC[C@]2(C)[C@@H]1[C@H](O)C[C@@H]1[C@@]3(C)CC[C@H](O)C(C)(C)[C@@H]3[C@@H](O[C@@H]3O[C@H](CO)[C@@H](O)[C@H](O)[C@H]3O)C[C@]12C [Ginsenoside-Rg1]	67.9	99.1	–	–
CC(=O)O[C@H]1[C@H]2O[C@]23[C@@H]2CC[C@]4(O)C[C@@H](O)CC[C@]4(C)[C@H]2CC[C@]3(C)[C@H]1c1ccc(=O)oc1 [Cinobufotalin]	–	–	70.7	97.8
